Assay results from PubChem BioAssay AID2060484 (Molecular Pharmacology Branch, DTP, NCI, 2025).
Values joined by “and” are separate entries in the source; they are usually repeats but may differ in a detail not shown here. Identical values can stand only once.

System: SUM149PT spheroids with HUVEC/MSC, viability
Assay: Anticancer human tumor SUM149PT cell line growth inhibition [GQUAD];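 note: spheroids exposed to drugs for seven days before readout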;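 for viability, T/C: percent viability relative to DMSO vehicle control taken as 100%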
Settings: for viability, T/C: stronger effect = lower value
Excerpt: DNA G-quadruplex Stabilizer Agents in Combinations in Complex Spheroids
A high-throughput screen of multi-cell type tumor spheroids was designed to identify active combinations of DNA G-quadruplex stabilizer agents and targeted small molecules. Complex spheroids include a stromal component modeled by human endothelial cells (HUVEC) and fibroblasts modeled by human mesenchymal stem cells (MSCs). The concentration ranges selected for each drug and investigational agent were based upon clinically achievable concentrations if the clinical Cmax of the agent was known.
Compounds. The drugs and investigational agents: pidnarulex (CX-5461; NSC782164), APTO-253 (NSC789042), BRACO-19 (NSC847499), peposertib (NSC802822), ceralasertib (NSC780249), elimusertib (NSC800525), camonsertib (NSC841442), AZD-1390 (NSC803789), olaparib (NSC753686), talazoparib (NSC767125), ART-558 (NSC835418), sotorasib (NSC818433), MRTX-1133 (NSC836407), SN-38 (NSC673596), topotecan (NSC609699), etoposide (NSC141540), doxorubicin (NSC123127), gemcitabine (NSC613327), 5-fluorouracil (NSC19893), paclitaxel (NSC125973), vemurafenib (NSC761431), panobinostat (NSC761190), R-306465 (JNJ-16241199; NSC773264), adavosertib (NSC754352), TP-3654 (NSC805149), carboplatin (NSC241240), KSQ-4279 (NSC840948), and staurosporine (NSC755774) were obtained from the National Cancer Institute (NCI) Developmental Therapeutics Program Chemical Repository (34). The FDA-approved anticancer drug set is available from the NCI Developmental Therapeutics Program. […] The stock solutions were prepared in dimethyl sulfoxide (DMSO, Sigma-Aldrich, St. Louis, MO, cat. D2650) at 800-fold the tested concentration and stored at -70 degrees C prior to their use. All drugs and investigational agents were tested over a range starting from a high concentration at or near the clinical Cmax and decreasing in half-log increments. If the clinical Cmax for an agent had not been determined, the highest concentration tested was 10 microM.
2.3 Cell Culture. All cells were maintained in an incubator at 37 degrees C and 5% CO2 with 95% humidity. The PDC lines were cultured according to standard operating procedures established by the NCI PDMR. All PDCs were thawed and cultured in Matrigel-coated flasks prepared with a working solution of 1X Ham's F-12 nutrient mix, without supplementation (Invitrogen, cat. 11765054), 100 U/mL penicillin-streptomycin (Invitrogen, cat. 15140122), and 2.5% Matrigel (Corning Inc., cat. 354248) for the first three passages. The 857933-349-R-J2-PDC line was cultured in 6C/Colon 1B media, which includes advanced DMEM/F-12 (Thermo Fisher Scientific, cat. 12634028), 10 mM HEPES (Thermo Fisher Scientific, cat. 15630080), 1X GlutaMAX supplement (Thermo Fisher Scientific, cat. 35050061), 0.1 mg/mL primocin (InvivoGen, cat. ant-pm-2), 10% defined fetal bovine serum, heat inactivated (HyClone Laboratories Inc., cat. SH30070.03HI), 50% L-WRN conditioned media (ATCC, cat. CRL-3276), 1.25 mM N-Acetyl-L-cysteine (Sigma-Aldrich, cat. A9165), 10 mM nicotinamide (Sigma-Aldrich, cat. N0636), 1X B-27 supplement (Thermo Fisher Scientific, cat. 17504044), 1X N-2 supplement (Thermo Fisher Scientific, cat. 17502048), 10 microM Y-27632 dihydrochloride (Tocris Bioscience, cat. 1254), and 50 ng/mL human EGF recombinant protein (Thermo Fisher Scientific, cat. PHG0311). The 485176-168-R4-J1-PDC line was cultured in Panc media, which includes all 6C/Colon 1B media components plus 100 ng/mL human FGF-10 (Thermo Fisher Scientific, cat. 100-26), 500 nM SB-431542 (Selleckchem, cat. S1067), and gastrin (Tocris, cat. 3006).
[…]

[1] = curve of first compound, second compound 0.0316 µM
[2] = curve of first compound, second compound 0.1 µM
[3] = curve of first compound, second compound 0.316 µM
[4] = curve of first compound, second compound 1 µM
[5] = curve of first compound, second compound 3.16 µM
[6] = curve of first compound, second compound 10 µM
[7] = second compound 0.0316 µM, first compound 0.0316 µM
[8] = second compound 0.0316 µM, first compound 0.1 µM
[9] = second compound 0.0316 µM, first compound 0.316 µM
[10] = second compound 0.0316 µM, first compound 1 µM
[11] = second compound 0.0316 µM, first compound 3.16 µM
[12] = second compound 0.0316 µM, first compound 10 µM
[13] = second compound 0.1 µM, first compound 0.0316 µM
[14] = second compound 0.1 µM, first compound 0.1 µM
[15] = second compound 0.1 µM, first compound 0.316 µM
[16] = second compound 0.1 µM, first compound 1 µM
[17] = second compound 0.1 µM, first compound 3.16 µM
[18] = second compound 0.1 µM, first compound 10 µM
[19] = second compound 0.316 µM, first compound 0.0316 µM
[20] = second compound 0.316 µM, first compound 0.1 µM
[21] = second compound 0.316 µM, first compound 0.316 µM
[22] = second compound 0.316 µM, first compound 1 µM
[23] = second compound 0.316 µM, first compound 3.16 µM
[24] = second compound 0.316 µM, first compound 10 µM
[25] = second compound 1 µM, first compound 0.0316 µM
[26] = second compound 1 µM, first compound 0.1 µM
[27] = second compound 1 µM, first compound 0.316 µM
[28] = second compound 1 µM, first compound 1 µM
[29] = second compound 1 µM, first compound 3.16 µM
[30] = second compound 1 µM, first compound 10 µM
[31] = second compound 3.16 µM, first compound 0.0316 µM
[32] = second compound 3.16 µM, first compound 0.1 µM
[33] = second compound 3.16 µM, first compound 0.316 µM
[34] = second compound 3.16 µM, first compound 1 µM
[35] = second compound 3.16 µM, first compound 3.16 µM
[36] = second compound 3.16 µM, first compound 10 µM
[37] = second compound 10 µM, first compound 0.0316 µM
[38] = second compound 10 µM, first compound 0.1 µM
[39] = second compound 10 µM, first compound 0.316 µM
[40] = second compound 10 µM, first compound 1 µM
[41] = second compound 10 µM, first compound 3.16 µM
[42] = second compound 10 µM, first compound 10 µM

Question: What does the source list for COc1cccc2c1C(=O)c1c(O)c3c(c(O)c1C2=O)CC(O)(C(=O)CO)CC3OC1CC(N)C(O)C(C)O1 (stereo not given) + CN(C)c1ccc(Nc2c3ccc(NC(=O)CCN4CCCC4)cc3nc3cc(NC(=O)CCN4CCCC4)ccc23)cc1?
Answer: IC50 [1]: 279 nM; IC50 [2]: 260 nM; IC50 [3]: 273 nM; IC50 [4]: 159 nM; IC50 [5]: 240 nM; IC50 [6]: 217 nM; viability, T/C [7]: 102%; viability, T/C [8]: 67.8%; viability, T/C [9]: 52.5%; viability, T/C [10]: 27.3%; viability, T/C [11]: 5.04%; viability, T/C [12]: 1.9%; viability, T/C [13]: 97.9%; viability, T/C [14]: 67.9%; viability, T/C [15]: 48.2%; viability, T/C [16]: 27.4%; viability, T/C [17]: 2.62%; viability, T/C [18]: 0.68%; viability, T/C [19]: 79.5%; viability, T/C [20]: 67.5%; viability, T/C [21]: 46.9%; viability, T/C [22]: 25.2%; viability, T/C [23]: 2.96%; viability, T/C [24]: 1.86%; viability, T/C [25]: 73.5%; viability, T/C [26]: 53.2%; viability, T/C [27]: 42.5%; viability, T/C [28]: 23.4%; viability, T/C [29]: 3.28%; viability, T/C [30]: 1.27%; viability, T/C [31]: 71%; viability, T/C [32]: 58.4%; viability, T/C [33]: 48.1%; viability, T/C [34]: 24.1%; viability, T/C [35]: 4.84%; viability, T/C [36]: 2.15%; viability, T/C [37]: 78.9%; viability, T/C [38]: 59.2%; viability, T/C [39]: 45.6%; viability, T/C [40]: 28.1%; viability, T/C [41]: 4%; viability, T/C [42]: 2.22%

Question: C=CC(=O)N1CCN(c2nc(=O)n(-c3c(C)ccnc3C(C)C)c3nc(-c4c(O)cccc4F)c(F)cc23)C(C)C1 (stereo not given) was tested. Which viability, T/C (compound 0.0316 µM) did it give?
Answer: 96.6% and 99.6% and 101%

Question: And the viability, T/C (compound 0.1 µM)?
Answer: 94.5% and 96.4% and 104%

Question: And the viability, T/C (compound 0.316 µM)?
Answer: 114% and 106% and 105%

Question: What about the viability, T/C (compound 1 µM) of the same compound?
Answer: 111% and 110% (2×)

Question: What about the viability, T/C (compound 3.16 µM) of the same compound?
Answer: 120% and 113% and 117%

Question: What about the viability, T/C (compound 10 µM) of the same compound?
Answer: 109% and 101% and 114%

Question: And the IC50 (curve of compound)?
Answer: > 10000 nM

Question: How did the viability, T/C (compound 0.0316 µM) turn out when CC1COCCN1c1cc(C2(S(C)(=N)=O)CC2)nc(-c2ccnc3[nH]ccc23)n1 (stereo not given) was run?
Answer: 95.4% and 101% (2×)

Question: And the viability, T/C (compound 0.1 µM)?
Answer: 98.2% and 91% and 98.3%

Question: What about the viability, T/C (compound 0.316 µM) of the same compound?
Answer: 96% and 99.7% and 94.1%

Question: And the viability, T/C (compound 1 µM)?
Answer: 86.7% and 83.5% and 77.8%

Question: What about the viability, T/C (compound 3.16 µM) of the same compound?
Answer: 39% and 44.6% and 81.2%

Question: What about the viability, T/C (compound 10 µM) of the same compound?
Answer: 24.2% and 26.8% and 16.7%

Question: And the IC50 (curve of compound)?
Answer: 2420 nM and 2690 nM and 5210 nM

Question: What does the source list for COc1ncnc(C2CC2)c1-c1ncc2cnn(Cc3ccc(-c4nc(C(F)(F)F)cn4C(C)C)cc3)c2n1 + Cc1cnc(CNC(=O)c2c(=O)c3ccc(N4CCCN(C)CC4)nc3n3c2sc2ccccc23)cn1?
Answer: IC50 [1]: > 10000 nM; IC50 [2]: 31.6 nM; IC50 [3]: < 31.6 nM; IC50 [4]: < 31.6 nM; IC50 [5]: < 31.6 nM; IC50 [6]: < 31.6 nM; viability, T/C [7]: 87.3%; viability, T/C [8]: 63.3%; viability, T/C [9]: 62.1%; viability, T/C [10]: 61.9%; viability, T/C [11]: 70.5%; viability, T/C [12]: 81.5%; viability, T/C [13]: 55.3%; viability, T/C [14]: 57.5%; viability, T/C [15]: 45.2%; viability, T/C [16]: 48.1%; viability, T/C [17]: 57.1%; viability, T/C [18]: 62.7%; viability, T/C [19]: 45.1%; viability, T/C [20]: 50.3%; viability, T/C [21]: 45.6%; viability, T/C [22]: 43.1%; viability, T/C [23]: 48.1%; viability, T/C [24]: 56.1%; viability, T/C [25]: 37.4%; viability, T/C [26]: 38.4%; viability, T/C [27]: 47.1%; viability, T/C [28]: 41.4%; viability, T/C [29]: 40%; viability, T/C [30]: 49.4%; viability, T/C [31]: 35%; viability, T/C [32]: 32.9%; viability, T/C [33]: 34.1%; viability, T/C [34]: 33.5%; viability, T/C [35]: 40%; viability, T/C [36]: 39.1%; viability, T/C [37]: 0.16%; viability, T/C [38]: 11.9%; viability, T/C [39]: 27.6%; viability, T/C [40]: 11%; viability, T/C [41]: 3.43%; viability, T/C [42]: 1.12%

Question: Which results are given for COc1ccc([C@@H](O)c2cc(-c3ncnc4cc(N5CCOCC5)ccc34)c(F)cc2Cl)nn1?
Answer: viability, T/C (compound 0.0316 µM): 91.9% and 96.4% and 101%; viability, T/C (compound 0.1 µM): 89.4% and 85.8% and 88.5%; viability, T/C (compound 0.316 µM): 82.2% and 83.3% and 78.4%; viability, T/C (compound 1 µM): 55.6% and 57.7% and 45%; viability, T/C (compound 3.16 µM): 35% and 38.2% and 27.2%; viability, T/C (compound 10 µM): 22.3% and 28.1% and 20.7%; IC50 (curve of compound): 1420 nM and 1620 nM and 867 nM
